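Dose response: 5 concentrations. Exposure: 48 h. Format: 96-well plates. Endpoint: linear interpolation; highest concentration if not reached. Definition used: TGI = concentration required for complete inhibition of growth.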
Tests used:
Assay in all cases: growth of human tumour cells (NCI), 48 h
[1] = system: 786-0 renal
[2] = system: A498 renal
[3] = system: A549 NSCLC
[4] = system: ACHN renal
[5] = system: BT-549 breast
[6] = system: CAKI-1 renal
[7] = system: CCRF-CEM leukemia
[8] = system: COLO 205 colon
[9] = system: DU-145 prostate
[10] = system: EKVX NSCLC
[11] = system: HCC-2998 colon
[12] = system: HCT-116 colon
[13] = system: HCT-15 colon
[14] = system: HL-60(TB) leukemia
[15] = system: HOP-62 NSCLC
[16] = system: HOP-92 NSCLC
[17] = system: HS 578T breast
[18] = system: HT29 colon
[19] = system: IGROV1 ovarian
[20] = system: K-562 leukemia
[21] = system: KM12 colon
[22] = system: LOX IMVI melanoma
[23] = system: M14 melanoma
[24] = system: MALME-3M melanoma
[25] = system: MCF7 breast
[26] = system: MDA-MB-231 breast
[27] = system: MDA-MB-435
[28] = system: MDA-N
[29] = system: MOLT-4 leukemia
[30] = system: NCI-H226 lung
[31] = system: NCI-H23 lung
[32] = system: NCI-H460 lung
[33] = system: NCI-H522 lung
[34] = system: NCI/ADR-RES ovarian
[35] = system: OVCAR-3 ovarian
[36] = system: OVCAR-4 ovarian
[37] = system: OVCAR-5 ovarian
[38] = system: OVCAR-8 ovarian
[39] = system: PC-3 prostate
[40] = system: RPMI-8226 leukemia
[41] = system: RXF 393 renal
[42] = system: SF-268 CNS
[43] = system: SF-295 CNS
[44] = system: SF-539 CNS
[45] = system: SK-MEL-2 melanoma
[46] = system: SK-MEL-28 melanoma
[47] = system: SK-MEL-5 melanoma
[48] = system: SK-OV-3 ovarian
[49] = system: SN12C renal
[50] = system: SNB-19 CNS
[51] = system: SNB-75 CNS
[52] = system: SR leukemia
[53] = system: SW-620 colon
[54] = system: T-47D breast
[55] = system: TK-10 renal
[56] = system: U251 CNS
[57] = system: UACC-257 melanoma
[58] = system: UO-31 renal
[59] = system: UACC-62 melanoma

SMILES: COC(=O)c1c(O)ccc2c1c1c(n2Cc2cc(OC)cc(OC)c2)C(=O)c2ccccc2C1=O
- TGI [1]: 21.4 µM
- TGI [2]: > 100 µM
- TGI [3]: 31.3 µM
- TGI [4]: 56.1 µM
- TGI [5]: 29 µM
- TGI [6]: 56.7 µM
- TGI [7]: 78.6 µM
- TGI [8]: 3.28 µM
- TGI [9]: 71.9 µM
- TGI [10]: 51.5 µM
- TGI [11]: 5.73 µM
- TGI [12]: 15.1 µM
- TGI [13]: 21.1 µM
- TGI [14]: 39.4 µM
- TGI [15]: 23 µM
- TGI [16]: 24.6 µM
- TGI [17]: 45.9 µM
- TGI [18]: 5.42 µM
- TGI [19]: 22 µM
- TGI [20]: > 100 µM
- TGI [21]: 13.6 µM
- TGI [22]: 63.5 µM
- TGI [23]: 26.2 µM
- TGI [24]: 22.4 µM
- TGI [25]: 45.3 µM
- TGI [26]: 35.7 µM
- TGI [27]: 12.9 µM
- TGI [28]: 34.3 µM
- TGI [29]: 73.3 µM
- TGI [30]: 39.3 µM
- TGI [31]: 27 µM
- TGI [32]: 19 µM
- TGI [33]: 20.9 µM
- TGI [34]: 21.8 µM
- TGI [35]: 25 µM
- TGI [36]: 50.7 µM
- TGI [37]: 55.9 µM
- TGI [38]: 90.3 µM
- TGI [39]: 19.3 µM
- TGI [40]: 9.98 µM
- TGI [41]: 45.6 µM
- TGI [42]: 41.2 µM
- TGI [43]: 32.7 µM
- TGI [44]: 25.9 µM
- TGI [45]: 27.2 µM
- TGI [46]: 33 µM
- TGI [47]: 26.7 µM
- TGI [48]: 37.5 µM
- TGI [49]: 24.2 µM
- TGI [50]: > 100 µM
- TGI [51]: 58.7 µM
- TGI [52]: > 100 µM
- TGI [53]: > 100 µM
- TGI [54]: 50.5 µM
- TGI [55]: 41.1 µM
- TGI [56]: 28.2 µM
- TGI [57]: > 100 µM
- TGI [58]: 40.5 µM

SMILES: NC(=O)[N+](=CC(=S)Nc1ccccc1Cl)C(N)=O
- TGI [1]: > 100 µM
- TGI [3]: > 100 µM
- TGI [4]: > 100 µM
- TGI [5]: > 100 µM
- TGI [6]: > 100 µM
- TGI [7]: > 100 µM
- TGI [8]: > 100 µM
- TGI [9]: > 100 µM
- TGI [10]: > 100 µM
- TGI [11]: > 100 µM
- TGI [12]: > 100 µM
- TGI [13]: > 100 µM
- TGI [14]: > 100 µM
- TGI [15]: > 100 µM
- TGI [16]: > 100 µM
- TGI [17]: > 100 µM
- TGI [18]: > 100 µM
- TGI [19]: > 100 µM
- TGI [20]: > 100 µM
- TGI [21]: > 100 µM
- TGI [22]: > 100 µM
- TGI [23]: > 100 µM
- TGI [25]: > 100 µM
- TGI [26]: > 100 µM
- TGI [27]: > 100 µM
- TGI [28]: > 100 µM
- TGI [29]: > 100 µM
- TGI [30]: > 100 µM
- TGI [31]: > 100 µM
- TGI [32]: > 100 µM
- TGI [33]: > 100 µM
- TGI [34]: > 100 µM
- TGI [35]: > 100 µM
- TGI [36]: > 100 µM
- TGI [37]: > 100 µM
- TGI [38]: > 100 µM
- TGI [39]: > 100 µM
- TGI [40]: > 100 µM
- TGI [41]: > 100 µM
- TGI [42]: > 100 µM
- TGI [43]: > 100 µM
- TGI [44]: > 100 µM
- TGI [45]: > 100 µM
- TGI [47]: > 100 µM
- TGI [48]: > 100 µM
- TGI [49]: > 100 µM
- TGI [50]: > 100 µM
- TGI [52]: > 100 µM
- TGI [53]: > 100 µM
- TGI [54]: > 100 µM
- TGI [55]: > 100 µM
- TGI [56]: > 100 µM
- TGI [57]: > 100 µM
- TGI [59]: > 100 µM
- TGI [58]: > 100 µM

SMILES: OCCN(CO)CO
- TGI [1]: > 100 µM
- TGI [2]: > 100 µM
- TGI [3]: > 100 µM
- TGI [4]: > 100 µM
- TGI [5]: > 100 µM
- TGI [6]: > 100 µM
- TGI [8]: > 100 µM
- TGI [9]: > 100 µM
- TGI [10]: > 100 µM
- TGI [11]: > 100 µM
- TGI [12]: > 100 µM
- TGI [13]: > 100 µM
- TGI [15]: > 100 µM
- TGI [16]: > 100 µM
- TGI [17]: > 100 µM
- TGI [18]: > 100 µM
- TGI [19]: > 100 µM
- TGI [20]: > 100 µM
- TGI [21]: > 100 µM
- TGI [23]: > 100 µM
- TGI [24]: > 100 µM
- TGI [25]: > 100 µM
- TGI [26]: > 100 µM
- TGI [27]: > 100 µM
- TGI [28]: > 100 µM
- TGI [30]: > 100 µM
- TGI [31]: > 100 µM
- TGI [32]: > 100 µM
- TGI [33]: > 100 µM
- TGI [34]: > 100 µM
- TGI [35]: > 100 µM
- TGI [36]: > 100 µM
- TGI [38]: > 100 µM
- TGI [39]: > 100 µM
- TGI [40]: > 100 µM
- TGI [41]: > 100 µM
- TGI [42]: > 100 µM
- TGI [43]: > 100 µM
- TGI [44]: > 100 µM
- TGI [45]: > 100 µM
- TGI [46]: > 100 µM
- TGI [47]: > 100 µM
- TGI [48]: > 100 µM
- TGI [49]: > 100 µM
- TGI [50]: > 100 µM
- TGI [51]: > 100 µM
- TGI [53]: > 100 µM
- TGI [54]: > 100 µM
- TGI [55]: > 100 µM
- TGI [56]: > 100 µM
- TGI [57]: > 100 µM
- TGI [59]: > 100 µM
- TGI [58]: > 100 µM

SMILES: CN(CCc1ccccn1)c1ccc2c(c1)C(=O)c1ccccc1-2
- TGI [1]: > 100 µM
- TGI [2]: > 100 µM
- TGI [3]: > 100 µM
- TGI [4]: > 100 µM
- TGI [5]: > 100 µM
- TGI [6]: > 100 µM
- TGI [7]: > 100 µM
- TGI [8]: > 100 µM
- TGI [9]: > 100 µM
- TGI [10]: > 100 µM
- TGI [11]: > 100 µM
- TGI [12]: > 100 µM
- TGI [13]: > 100 µM
- TGI [15]: > 100 µM
- TGI [16]: > 100 µM
- TGI [17]: > 100 µM
- TGI [18]: > 100 µM
- TGI [19]: > 100 µM
- TGI [20]: > 100 µM
- TGI [21]: > 100 µM
- TGI [22]: > 100 µM
- TGI [23]: > 100 µM
- TGI [24]: > 100 µM
- TGI [25]: > 100 µM
- TGI [26]: > 100 µM
- TGI [27]: > 100 µM
- TGI [28]: > 100 µM
- TGI [30]: > 100 µM
- TGI [31]: > 100 µM
- TGI [32]: > 100 µM
- TGI [33]: > 100 µM
- TGI [34]: > 100 µM
- TGI [35]: > 100 µM
- TGI [36]: > 100 µM
- TGI [37]: > 100 µM
- TGI [38]: > 100 µM
- TGI [39]: > 100 µM
- TGI [40]: > 100 µM
- TGI [41]: > 100 µM
- TGI [42]: > 100 µM
- TGI [43]: > 100 µM
- TGI [45]: > 100 µM
- TGI [46]: > 100 µM
- TGI [47]: 98.3 µM
- TGI [48]: > 100 µM
- TGI [49]: > 100 µM
- TGI [50]: > 100 µM
- TGI [51]: > 100 µM
- TGI [53]: > 100 µM
- TGI [54]: > 100 µM
- TGI [55]: > 100 µM
- TGI [56]: > 100 µM
- TGI [57]: > 100 µM
- TGI [59]: > 100 µM
- TGI [58]: > 100 µM

Source: PubChem BioAssay (NCI)
